Reference: US9006228B2 (Merck Sharp & Dohme Corp., priority 2011, dated 2015)

Each compound was assayed against T1, human GPR119 (Homo sapiens, UniProt Q8TDV5) (assay: Measurement of GPR119 signaling (cAMP assay; LANCE kit or HTRF) in HEK293 cells stably transfected with human GPR119). Settings: agonist-stimulated cAMP in HEK293 cells expressing human GPR119.
T1 sequence (Q8TDV5 1-308 limits assumed): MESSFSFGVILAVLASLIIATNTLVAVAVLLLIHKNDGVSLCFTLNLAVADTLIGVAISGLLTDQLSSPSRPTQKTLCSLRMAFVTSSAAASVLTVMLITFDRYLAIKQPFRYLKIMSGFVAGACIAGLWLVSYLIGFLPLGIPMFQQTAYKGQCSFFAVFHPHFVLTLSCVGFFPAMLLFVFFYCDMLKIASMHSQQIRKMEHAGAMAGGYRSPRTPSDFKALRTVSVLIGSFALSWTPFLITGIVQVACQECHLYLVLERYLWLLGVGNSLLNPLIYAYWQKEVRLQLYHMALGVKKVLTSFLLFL
Assay type: cell-based
Protocol: Measurement of GPR119 Signaling Using LANCE 384-Well cAMP Kit
The adenylate cyclase assay was constructed following the LANCE™ cAMP Kit (Perkin Elmer, AD0264) instructions. […] The reaction was stopped by incubating with the supplied detection buffer containing the europium chelate of the Eu-SA/Biotin-cAMP tracer for 3 hours. The assay was performed in duplicate in a 384 well plate for duplicate plates. Fluorescence at 665 nm was measured using a PHERAstar instrument. Basal activity was determined using a DMSO control and maximum response was defined as cAMP stimulation produced by an internal agonist control. Standard cAMP concentrations were assayed concurrently for conversion of fluorescence signal to cAMP level. The data was analyzed using 4-parameter curve fit in Microsoft Excel.
Measurement of GPR119 Signaling Using a Cyclic AMP (cAMP) Homogenous Time Resolved Fluorescence (HTRF) Assay
Chinese hamster ovary (CHO) cell lines stably transfected with the permissive guanine nucleotide binding protein alpha 15 (Gα15) and murine GPR119 were maintained in DMEM media containing FBS, penicillin-streptomycin, puromycin, and G418 (geneticin). […] Agonist activation of the GPR119 receptor was measured in receptor transfected cells described above, treated with compounds of this invention, using a commercial homogenous time resolved fluorescence (HTRF) kit for measurement of cAMP (CisBio, Bedford, Mass.). The assay was performed in 96-well half-volume plates (murine) or 384-well plates (human) following the manufacturers instructions. Briefly, suspended cells were incubated with a dose titration of test compound at RT for 60 min, lysed, and incubated with HTRF reagents for an additional 60 min. The plate was read using an Envision multilabel reader (Perkin Elmer) adjusted to read time resolved fluorescence and the cAMP concentrations were extrapolated from a cAMP calibration curve. […] The concentration of test compound required to stimulate a half-maximal response (EC50), and efficacy as compared to an internal agonist control, was determined from a sigmoidal 4-parameter curve fit of the resulting plot of normalized activity versus compound concentration.

SMILES	EC50 [nM]
CCc1cnc(N2CCC([C@H]3C[C@H]3COCc3ccc(-c4cccnn4)c(F)c3)CC2)nc1 [Example 114, 3-{4-[({(1R,2R)-2-[1-(5-ethylpyrimidin-2-yl)piperidin-4-yl]cyclopropyl}methoxy)methyl]-2-fluorophenyl}pyridazine]	3
CC(C)c1noc(N2CCC([C@H]3C[C@H]3COCc3ccc(CC(=O)N4CCOCC4)c(F)c3)CC2)n1 [Example 141, 2-(2-fluoro-4-((((1R,2R)-2-(1-(3-isopropyl-1,2,4-oxadiazol-5-yl)piperidin-4-yl)cyclopropyl)methoxy)methyl)phenyl)-1-morpholinoethanone]	1.2
CC(C)c1noc(N2CCC([C@H]3C[C@H]3COCc3ccc(CC(=O)N4CC(O)C4)c(F)c3)CC2)n1 [Example 143, 2-(2-fluoro-4-((((1R,2R)-2-(1-(3-isopropyl-1,2,4-oxadiazol-5-yl)piperidin-4-yl)cyclopropyl)methoxy)methyl)phenyl)-1-(3-hydroxyazetidin-1-yl)ethanone]	6.3
CCc1cnc(N2CCC([C@H]3C[C@H]3COCc3ccc(-c4ccncn4)c(F)c3)CC2)nc1 [Example 112, 4-{4-[({(1R,2R)-2-[1-(5-ethylpyrimidin-2-yl)piperidin-4-yl]cyclopropyl}methoxy)methyl]-2-fluorophenyl}pyrimidine]	3
CCc1cnc(N2CCC([C@H]3C[C@H]3COCc3ccc(-c4ccc(OC)nn4)cc3F)CC2)nc1 [Example 101, 3-{4-[({(1R,2R)-2-[1-(5-ethylpyrimidin-2-yl)piperidin-4-yl]cyclopropyl}methoxy)methyl]-3-fluorophenyl}-6-methoxypyridazine]	0.8
COC1CN(C(=O)Cc2ccc(COC[C@@H]3C[C@@H]3C3CCN(c4nc(C(C)C)no4)CC3)cc2F)C1 [Example 142, 2-(2-fluoro-4-((((1R,2R)-2-(1-(3-isopropyl-1,2,4-oxadiazol-5-yl)piperidin-4-yl)cyclopropyl)methoxy)methyl)phenyl)-1-(3-methoxyazetidin-1-yl)ethanone]	0.95
CCc1cnc(N2CCC([C@H]3C[C@H]3[C@@H](COC)OCc3ccc(S(C)(=O)=O)cc3)CC2)nc1 [Example 66]	0.19

The remaining compounds from weak to strong by EC50, led by results:

EC50 [nM]	SMILES
10.8	CCc1cnc(N2CCC([C@H]3C[C@H]3COCc3ccc(-c4ccnc(N)n4)cc3F)CC2)nc1 [Example 105, 4-{4-[({(1R,2R)-2-[1-(5-ethylpyrimidin-2-yl)piperidin-4-yl]cyclopropyl}methoxy)methyl]-3-fluorophenyl}pyrimidin-2-amine]
9.3	CS(=O)(=O)c1ccc(COC[C@@H]2C[C@@H]2C2CCN(c3ncc(C#N)cn3)CC2)c(F)c1 [Example 72]
2.2	COC1CN(C(=O)Cc2ccc(COC[C@@H]3C[C@@H]3C3CCN(c4nc(C(C)C)no4)CC3)c(F)c2)C1 [Example 138, 2-(3-fluoro-4-((((1R,2R)-2-(1-(3-isopropyl-1,2,4-oxadiazol-5-yl)piperidin-4-yl)cyclopropyl)methoxy)methyl)phenyl)-1-(3-methoxyazetidin-1-yl)ethanone]
1.6	CC(O)CS(=O)(=O)c1ccc(COC[C@@H]2C[C@@H]2C2CCN(c3ncc(Br)cn3)CC2)c(F)c1 (stereo partly drawn) [Example 97, 1-({4-[({(1R,2R)-2-[1-(5-bromopyrimidin-2-yl)piperidin-4-yl]cyclopropyl}methoxy)methyl]-3-fluorophenyl}sulfonyl)propan-2-ol]
1	CS(=O)(=O)c1ccc(COC[C@@H]2C[C@@H]2C2CCN(c3ncc(C4CC4)cn3)CC2)cc1 [Example 18, 5-cyclopropyl-2-{4-[(1R,2R)-2-({[4-(methylsulfonyl)benzyl]oxy}methyl)cyclopropyl]piperidin-1-yl}pyrimidine]
1	CCc1cnc(N2CCC([C@H]3C[C@H]3COCc3ccc(-c4ccnnc4)c(F)c3)CC2)nc1 [Example 115, 4-{4-[({(1R,2R)-2-[1-(5-ethylpyrimidin-2-yl)piperidin-4-yl]cyclopropyl}methoxy)methyl]-2-fluorophenyl}pyridazine]
